Legend:
[1] = humans; major metabolite; cited from earlier work
[2] = tested on: conversion of E1S to E2 (sulfatase activity) in T-47D breast cancer cell line; experiment: Conversion of [3H]-E1S to E2 in T-47D human mammary cancer cells; type: cell-based; conditions: for inhibition at 0.005 µM / inhibition at 0.5 µM / inhibition at 50 µM / IC50: Homo sapiens, T47D; for inhibition at 0.005 µM / inhibition at 0.5 µM / inhibition at 50 µM: mean ± SEM; for IC50: non-linear regression analysis; for E2 formed: 5×10^−9 mol/l [3H]-E1S, control 1805 ± 152
Procedure: (§1) [6,7-^3H(N)]-estrone sulfate (^3H-E1S), ammonium salt (sp. act. 53 Ci/mmol) and [4-^14C]-estradiol (^14C-E2) (sp. act. 57 mCi/mmol) were purchased from New England Nuclear Division (DuPont de Nemours, Les Ulls, France). The purity of the radioisotopes was assessed by thin-layer chromatography (TLC) in the appropriate system before use. E1S, ammonium salt, unlabeled E1and E2, (analytical grade) were obtained from Sigma-Aldrich Chimle, (St Quentin Fallavier, France). 17-deacetylnorgestimate (NGMN; 13-ethyl-17-hydroxy-18,19-dinor-17α-pregn-4-en-20-yn-3-one oxime) was a gift from R. W. Johnson Pharmaceutical Research Institute, Medicinal Chemistry Department, (Raritan, N.J., USA); medroxyprogesterone acetate (MPA, 17α-acetoxy-6α-methylprogesterone) was obtained from Sigma-Aldrich Chimie. All other chemicals were of the highest grade commercially available.
(§2) The hormone-dependent MCF-7 and T-47D human mammary cancer cell lines were grown in Eagle's Minimal Essential Medium (MEM) buffered with 10 mmol/l HEPES (pH 7.6), supplemented with 2 mmol/l L-glutamine, 100 U/ml penicillin-streptomycin and 5% fetal calf serum (FCS) (A.T.G.C., Marne-la-Vallée, France) for T-47D, or 10% FCS for MCF-7 cells, and incubated at 37° C. n a humidified atmosphere of 5% CO2. Media were changed twice a week. The cells were passed every 10-12 days and replated in 75 cm^2 flasks (A.T.G.C.) at 3×10^6 cells/flask. Four days before the experiments, the cells were transferred to MEM containing 5% steroid-depleted treated FCS. The FCS had been treated overnight at 4° C. with dextran-coated charcoal (DCC)(0.1-1% w/v, DCC-FCS). The MCF-7 and T-47D cell lines used herein were deposited in accordance with the Budapest Treaty under the references MCF7_JJPRD and T47D_JJPRD on May 17, 2002 at The Belgian Co-ordinated Collections of Micro-organisms (BCCM), Laboratorium voor Moleculaire Biologie, Universiteit Gent, K. L. Ledeganckstraat 35, B-9000 Gent, Belgium and are publicly available under accession numbers LMBP 5862CB and LMBP 5863CB, respectively.
(§3) Preconfluent cells were incubated for 4 hours at 37° C. in MEM-DCC-FCS with the addition of 5×10^−9 mol/l of [^3H]-E1S, alone (control cells) or in combination with the different compounds: NGMN or MPA, dissolved in ethanol (final concentration <0.2%), at a range of concentrations of 5×10^−5-5×10^−9 mol/l. Control cells received ethanol vehicle only. After 24 hours, the medium was removed, the cells washed twice with ice-cold Hank's Buffered Saline Solution (HBSS, calcium-magnesium-free)(A.T.G.C.) and harvested by scraping. After centrifugation, the pallet was treated with 80% ethanol and the radioactivity extracted for at least 24 h at −20° C. The cellular radioactivity uptake was determined in the ethanolic supernatant and the DNA content in the remaining pellet was evaluated according to Burton Biochem Journal 62:315-323, 1956. [^14C]-E2 (5,000 dpm) was added to monitor analytical losses and unlabeled E1and E2 (50 μg) were used as carriers and reference indicators. In the total ethanolic extracts, E2 was isolated by thin layer chromatography (TLC) on silica gel 60F254 (Merck, Darmstadt, Germany), developed with chloroformi-ethylacetate (4:1, v/v) system. After visualization of the estrogens under U.V. at 254 nm, the appropriate areas were cut off into small pieces, placed in liquid scintillation vials with ethanol (0.5 ml) and allowed to extract for […]. Three ml of Opti-fluor (Packard, Rungis, France) were added and the vials were analyzed for ^3H and ^14C contents with quench correction by external standarization. The quantitative evaluation of E2 was calculated as a percentage of the total radioactivity associated with the cells and then expressed as fmol of E2 formed/mg DNA from E1S.
(§4) Data are expressed as the mean±standard error of the mean (SEM) values. Student's t-test was used to assess the significance of the differences between means; p values ≦0.05_were considered significant. […]

[3] = tested on: conversion of E1S to E2 (sulfatase activity) in MCF-7 breast cancer cell line; experiment: Conversion of [3H]-E1S to E2 in MCF-7 human mammary cancer cells; type: cell-based; conditions: for inhibition at 0.005 µM / inhibition at 0.5 µM / inhibition at 50 µM / IC50: Homo sapiens; for inhibition at 0.005 µM: MCF7, compound conc 0.005 × 10^−6 mol/l; for inhibition at 0.005 µM / inhibition at 0.5 µM / inhibition at 50 µM: mean ± SEM; for inhibition at 0.5 µM: MCF7, compound conc 0.5 × 10^−6 mol/l; for inhibition at 50 µM: MCF7, compound conc 50 × 10^−6 mol/l; for IC50: MCF7, non-linear regression analysis; for E2 formed: 5×10^−9 mol/l [3H]-E1S, control 2185 ± 101
Procedure: as §1, §2, §3, §4

[4] = compound conc 0.005 × 10^−6 mol/l
[5] = compound conc 0.5 × 10^−6 mol/l
[6] = compound conc 0.005 × 10^−6 mol/l, mean of 3 experiments

| Structure (SMILES) | fraction of norgestimate converted to norelgestromin in vivo [1] | inhibition at 0.005 µM [2, 4] | inhibition at 0.5 µM [2, 5] | inhibition at 50 µM ([2]; compound conc 50 × 10^−6 mol/l) | IC50 [2] | E2 formed [2, 6] | E2 formed [2, 5] | E2 formed ([2]; compound conc 50 × 10^−6 mol/l) | inhibition at 0.005 µM [3] | inhibition at 0.5 µM [3] | inhibition at 50 µM [3] | IC50 [3] | E2 formed [3, 4] | E2 formed [3, 5] | E2 formed ([3]; compound conc 50 × 10^−6 mol/l) |
| --- | --- | --- | --- | --- | --- | --- | --- | --- | --- | --- | --- | --- | --- | --- | --- |
| C#C[C@]1(OC(C)=O)CC[C@H]2[C@@H]3CCC4=CC(=NO)CC[C@@H]4[C@H]3CC[C@@]21CC (mixture of isomers) [norgestimate] | ≥ 80% |  |  |  |  |  |  |  |  |  |  |  |  |  |  |
| CC(=O)O[C@]1(C(C)=O)CC[C@H]2[C@@H]3C[C@H](C)C4=CC(=O)CC[C@]4(C)[C@H]3CC[C@@]21C [MPA, 17α-acetoxy-6α-methylprogesterone] |  | 31% | 47% | 61% | 2.15 µM | 1245 fmol/mg DNA | 957 fmol/mg DNA | 704 fmol/mg DNA | 6% | 20% | 63% | 26.1 µM | 2054 fmol/mg DNA | 1748 fmol/mg DNA | 808 fmol/mg DNA |
| C#C[C@]1(O)CC[C@H]2[C@@H]3CCC4=C/C(=N/O)CC[C@@H]4[C@H]3CC[C@@]21CC [NGMN, 13-ethyl-17-hydroxy-18,19-dinor-17α-pregn-4-en-20-yn-3-one oxime] |  | 43% | 74% | 97% | 0.0127 µM | 1029 fmol/mg DNA | 469 fmol/mg DNA | 54 fmol/mg DNA | 25% | 57% | 96% | 0.178 µM | 1639 fmol/mg DNA | 940 fmol/mg DNA | 87 fmol/mg DNA |

Reference: patent publication US20030225047A1, “Sulfatase inhibiting progestogen-only contraceptive regimens” (priority 2002, published 2003)
